For 8 molecules, IC50 results are on record in patent US12281122B1, “PI3K inhibitors” (Cogent Biosciences, Inc., priority 2023, dated 2025).

pIC50: −log10 of the molar value. Where only a bound is given, the exact number is not on record here.

The test system of assay [1] is T47D (PI3Kα-H1047R) cell line. Description: HTRF phospho-AKT(S473) cell assay in T47D cells. The class given is cell-based, human. The note with it: Homo sapiens; HTRF phospho-AKT(S473), T47D (PI3Kα-H1047R) cells, 2 hours compound incubation. The procedure, abridged: (§1)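 Cells plated overnight (T47D in RPMI/10% FBS/0.2 units/mL insulin; SKBR3 in McCoy's 5A/10% FBS), then given 12-point 1:3 compound series (top 5 μM T47D, 10 μM SKBR3; ≤0.5% DMSO) for 2 h at 37° C. SKBR3 stimulated with 70 ng/ml PDGF-BB for final 15 min. Lysate pAKT(S473) by HTRF; IC50 calculated.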
Background: Time-resolved FRET reads energy transfer from a long-lived donor to a nearby acceptor.

The subject of assay [2] is SKBR3 (PI3Kα-Wild Type) cell line. Description: HTRF phospho-AKT(S473) cell assay in SKBR3 cells. Type of assay: cell-based, human. The note with it: Homo sapiens, SK-BR-3; HTRF phospho-AKT(S473), SKBR3 (PI3Kα-Wild Type) cells, 2 hours compound incubation, PDGF-BB stimulated. The method, boiled down: as §1

As a reminder, the pIC50 is −log10 of the IC50, conventionally taken in molar units. Consider `Cc1cc([C@@H](C)Nc2ccc(Cl)nc2C(=O)NS(C)(=O)=O)c2nc(N3CCC(c4cn(C(C)C)nn4)CC3)n(C)c(=O)c2c1` [Compound 573, (R)-6-chloro-3-((1-(2-(4-(1-isopropyl-1H-1,2,3-triazol-4-yl)piperidin-1-yl)-3,6-dimethyl-4-oxo-3,4-dihydroquinazolin-8-yl)ethyl)amino)-N-(methylsulfonyl) picolinamide], for which the pIC50 is more than 6.60 in assay [1] and 5.30 to 6.00 in assay [2].
Turning to `Cc1cc([C@@H](C)Nc2ccc(Cl)nc2C(=O)NS(C)(=O)=O)c2nc(N3CCN(c4ccc(F)cn4)CC3)n(C)c(=O)c2c1` [Compound 574, (R)-6-chloro-3-((1-(2-(4-(5-fluoropyridin-2-yl)piperazin-1-yl)-3,6-dimethyl-4-oxo-3,4-dihydroquinazolin-8-yl)ethyl)amino)-N-(methylsulfonyl) picolinamide], the pIC50 in assay [1] is 6.30 to 6.60; in assay [2] it was 5.30 to 6.00.
Turning to `Cc1cc([C@@H](C)Nc2ccc(Cl)nc2C(=O)NS(C)(=O)=O)c2nc(N3CCN(c4nc(C)ncc4F)CC3)n(C)c(=O)c2c1` [Compound 575, (R)-6-chloro-3-((1-(2-(4-(5-fluoro-2-methylpyrimidin-4-yl)piperazin-1-yl)-3,6-dimethyl-4-oxo-3,4-dihydroquinazolin-8-yl)ethyl)amino)-N-(methylsulfonyl) picolinamide], the results for the pIC50 in assay [1] and in assay [2] were more than 6.60 and 5.30 to 6.00, respectively.
The like results for `Cc1cc([C@@H](C)Nc2ccc(Cl)nc2C(=O)NS(C)(=O)=O)c2nc(N3C[C@@H]4C[C@H]3CN4c3cnc(C)nc3)n(C)c(=O)c2c1` [Compound 576, 6-chloro-3-(((R)-1-(3,6-dimethyl-2-((1S,4S)-5-(2-methylpyrimidin-5-yl)-2,5-diazabicyclo[2.2.1]heptan-2-yl)-4-oxo-3,4-dihydroquinazolin-8-yl)ethyl)amino)-N-(methylsulfonyl) picolinamide] were, in that order, 6.00 to 6.30 and not above 5.30.
Take `Cc1cc([C@@H](C)Nc2ccc(Cl)nc2C(=O)NS(C)(=O)=O)c2nc(N3C[C@H]4C[C@@H]3CN4c3cnc(C)cn3)n(C)c(=O)c2c1` [Compound 577, 6-chloro-3-(((R)-1-(3,6-dimethyl-2-((1R,4R)-5-(5-methylpyrazin-2-yl)-2,5-diazabicyclo[2.2.1]heptan-2-yl)-4-oxo-3,4-dihydroquinazolin-8-yl)ethyl)amino)-N-(methylsulfonyl) picolinamide]: the pIC50 is 6.30 to 6.60 in assay [1] and not above 5.30 in assay [2].
The like results for `Cc1cc([C@@H](C)Nc2ccc(Cl)nc2C(=O)NS(C)(=O)=O)c2nc(N3C[C@@H]4[C@H](C3)[C@H]4c3cnc(C)nc3C)n(C)c(=O)c2c1` [Compound 578, 6-chloro-3-(((R)-1-(2-((1R,5S,6S)-6-(2,4-dimethylpyrimidin-5-yl)-3-azabicyclo[3.1.0]hexan-3-yl)-3,6-dimethyl-4-oxo-3,4-dihydroquinazolin-8-yl)ethyl)amino)-N-(methylsulfonyl) picolinamide] were, in that order, more than 6.60 and 5.30 to 6.00.
Regarding `Cc1cc([C@@H](C)Nc2ccc(Cl)nc2C(=O)NS(C)(=O)=O)c2nc(N3C[C@@H]4C[C@H]3CN4c3ncc(C#N)cc3F)n(C)c(=O)c2c1` [Compound 579, 6-chloro-3-(((R)-1-(2-((1S,4S)-5-(5-cyano-3-fluoropyridin-2-yl)-2,5-diazabicyclo [2.2.1]heptan-2-yl)-3,6-dimethyl-4-oxo-3,4-dihydroquinazolin-8-yl)ethyl)amino)-N-(methylsulfonyl) picolinamide], the pIC50 in assay [1] is 6.30 to 6.60; in assay [2], not above 5.30.
The like results for `Cc1cc([C@@H](C)Nc2ccc(Cl)nc2C(=O)NS(C)(=O)=O)c2nc(N3C[C@@H]4C[C@H]3CN4c3ccc(C#N)cn3)n(C)c(=O)c2c1` [Compound 580, 6-chloro-3-(((R)-1-(2-((1S,4S)-5-(5-cyanopyridin-2-yl)-2,5diazabicyclo [2.2.1]heptan-2-yl)-3,6-dimethyl-4-oxo-3,4-dihydroquinazolin-8-yl)ethyl)amino)-N-(methylsulfonyl) picolinamide] were, in that order, 6.30 to 6.60 and not above 5.30.
